Values joined by “and” are separate entries in the source; they are usually repeats but may differ in a detail not shown here. Identical values can stand only once.
How the values were obtained:
[1] = system: Trypanosoma brucei rhodesiense; assay: microbe, parasite or virus in culture; format: functional, organism-based, STIB 900
Description: DNDI: HAT in Vitro, 72 hour

Leishmania donovani [2] = assay: microbe, parasite or virus in culture; format: functional, organism-based, MHOM/ET/67/L82
Description: DNDI: Leish (axenic) in Vitro, 72 hour

Leishmania donovani [3] = assay: microbe, parasite or virus in culture; format: functional, organism-based, MHOM/ET/67/L82; settings: Leishmania donovani, MHOM/ET/67/L82, 96 h
Description: DNDI: Leish (macro) in Vitro, 96 hour

Plasmodium falciparum = assay: microbe, parasite or virus in culture; format: functional, organism-based, K1
Description: DNDI: Malaria in Vitro, 72 hour

Trypanosoma cruzi = assay: microbe, parasite or virus in culture; format: functional, organism-based, Tulahuen C4 (LacZ); settings: Trypanosoma cruzi, Tulahuen C4 (LacZ), 96 h
Description: DNDI: Chagas in Vitro, 96 hour

cells [4] = format: functional, cell-based; settings: Rattus norvegicus, L6, 72 h
Description: DNDI: Cytotoxicity in Vitro, 72 hour, in rat skeletal myoblast cells

cells [5] = format: functional, cell-based; settings: Mus musculus, NMRI, BalbC or CD1 mice, Macrophage, 96 h
Description: DNDI: Cytotoxicity in Vitro, 96 hour, in mouse macrophages (infected-amastigotes)

[6] = Trypanosoma brucei, STIB 900, 72 h
[7] = Leishmania donovani, MHOM/ET/67/L82, 72 h
[8] = Plasmodium falciparum, K1, 72 h

Structure (SMILES) | IC50 [1, 6] [µM] | IC50 (Leishmania donovani [2]; [7]) [µM] | IC50 (Leishmania donovani [3]) [µM] | IC50 (Plasmodium falciparum; [8]) [µM] | IC50 (Trypanosoma cruzi) [µM] | IC50 (cells [4]) [µM] | IC50 (cells [5]) [µM] | IC50 [1] [µM] | IC50 (Leishmania donovani [2]) [µM] | IC50 (Plasmodium falciparum)
C[C@H]1[C@@H](OC(=O)CCC(=O)O)O[C@@H]2O[C@]3(C)CC[C@H]4[C@H](C)CC[C@@H]1[C@@]24OO3 | 16.8 | 0.35 | > 7.8 | 0.003 | 8.97 | 0.78 | > 7.8 |  |  | 
CO[C@H]1/C=C/O[C@@]2(C)Oc3c(C)c(O)c4c(O)c(c(/C=N/N5CCN(C)CC5)c(O)c4c3C2=O)NC(=O)/C(C)=C\C=C\[C@H](C)[C@H](O)[C@@H](C)[C@@H](O)[C@H](C)[C@H](OC(C)=O)[C@H]1C | 16.7 | 1.53 | > 36.5 | 0.1 | > 109 | 75.2 | > 36.5 |  |  | 
CO[C@H]1/C=C/O[C@]2(C)Oc3c(C)c(O)c4c(O)c(c5c(nc6cc(C)ccn65)c4c3C2=O)NC(=O)/C(C)=C\C=C\[C@H](C)[C@H](O)[C@@H](C)[C@@H](O)[C@H](C)[C@H](OC(C)=O)[C@H]1C | 17.1 | 15 | > 38.2 | 0.92 | 40.2 | 88 | > 38.2 |  |  | 
CO[C@H]1/C=C/O[C@@]2(C)Oc3c(C)c(O)c4c(c3C2=O)C2=NC3(CCN(CC(C)C)CC3)NC2=C(NC(=O)/C(C)=C\C=C\[C@H](C)[C@H](O)[C@@H](C)[C@@H](O)[C@H](C)[C@H](OC(C)=O)[C@H]1C)C4=O | 12.6 | 56.4 | > 35.4 | 1.59 | 27.5 | 60.9 | > 35.4 |  |  | 
CC[C@@H]1OC(=O)[C@@H](C)[C@H](O[C@H]2C[C@@](C)(OC)[C@@H](O)[C@H](C)O2)[C@@H](C)[C@H](O[C@H]2O[C@@H](C)C[C@@H](N(C)C)[C@@H]2O)[C@@](C)(O)C[C@H](C)C(=O)[C@@H](C)[C@H](O)[C@@]1(C)O | 72.1 | > 133 | > 39.9 | 9.91 | 114 | 92.2 | > 39.9 |  |  | 
CCC[C@@H]1C[C@@H](C(=O)N[C@H]([C@@H]2O[C@H](SC)[C@H](O)[C@@H](O)[C@H]2O)[C@@H](C)O)N(C)C1 | > 221 | > 221 | > 73.8 | 7.08 | > 221 | > 221 | > 73.8 |  |  | 
COc1cc(C)c2c(Oc3cccc(C(F)(F)F)c3)c(OC)cc(N[C@H](C)CCCN)c2n1 | 1.42 | 17.9 | > 2.16 | 0.27 | 6.11 | 5.52 | 6.47 |  |  | 
CC(=O)[C@H]1CC[C@@H]2[C@@H]3CC[C@@H]4C[C@](C)(O)CC[C@]4(C)[C@H]3CC[C@@]12C | 5.47 | 42.5 | > 30.1 | > 15 | 65 | 23.5 | > 90.2 |  |  | 
C[C@H]1c2cccc(O)c2C(O)=C2C(=O)[C@]3(O)C(=O)/C(=C(/N)O)C(=O)[C@@H](N(C)C)[C@@H]3[C@@H](O)[C@@H]21 | 63.7 | 24.1 | > 22.5 | 4.48 | 39.1 | 14.5 | 67.5 |  |  | 
O[C@@H](c1cc(C(F)(F)F)nc2c(C(F)(F)F)cccc12)[C@H]1CCCCN1 [(S,R)-MEFLOQUINE] | 0.53 | 38.6 | 2.41 | 0.0024 | 4.48 | 3.25 | 7.23 |  |  | 
COC(=O)N[C@H](C(=O)N[C@@H](Cc1ccccc1)[C@@H](O)CN(Cc1ccc(-c2ccccn2)cc1)NC(=O)[C@@H](NC(=O)OC)C(C)(C)C)C(C)(C)C [ATAZANAVIR] | 12.7 | 24.1 | > 37.5 | 7.95 | 33.3 | 46.5 | > 37.5 |  |  | 
c1ccc(-c2ccc(C(c3ccccc3)n3ccnc3)cc2)cc1 (stereo unspecified) [BIFONAZOLE] | 26.8 | 5.48 | > 32.2 | 3.18 | 0.003 | 39.3 | > 32.2 |  |  | 
CN(C)CCCN1c2ccccc2Sc2ccc(Cl)cc21 [CHLORPROMAZINE] | 1.25 | 48.5 | > 9.41 | 3.03 | 17.2 | 12.3 | 31.4 |  |  | 
O=C(O)c1cn(C2CC2)c2cc(N3CCNCC3)c(F)cc2c1=O [CIPROFLOXACIN] | 35.9 | > 302 | > 90.5 | 13.2 | 92 | 118 | > 90.5 |  |  | 
C#C[C@]1(O)CC[C@H]2[C@@H]3CCC4=Cc5oncc5C[C@]4(C)[C@H]3CC[C@@]21C [DANAZOL] | 45.9 | 10.2 | > 29.6 | 14.1 | 6.25 | 32 | > 29.6 |  |  | 
OCCN(CCO)c1nc(N2CCCCC2)c2nc(N(CCO)CCO)nc(N3CCCCC3)c2n1 [DIPYRIDAMOLE] | 7.45 | 62 | > 59.5 | 1.3 | 29.3 | 38.6 | > 59.5 |  |  | 

Structure (SMILES) | IC50 [1, 6] [µM] | IC50 (Leishmania donovani [2]; [7]) [µM] | IC50 (Leishmania donovani [3]) [µM] | IC50 (Plasmodium falciparum; [8]) [µM] | IC50 (Trypanosoma cruzi) [µM] | IC50 (cells [4]) [µM] | IC50 (cells [5]) [µM] | IC50 [1] [µM] | IC50 (Leishmania donovani [2]) [µM] | IC50 (Plasmodium falciparum)
COc1ccc(Cl)cc1C(=O)NCCc1ccc(S(=O)(=O)NC(=O)NC2CCCCC2)cc1 [GLYBURIDE] | 87.7 | 9.8 | > 60.7 | 38.3 | 93.9 | 116 | > 60.7 |  |  | 
COC1=CC(=O)C[C@@H](C)[C@]12Oc1c(Cl)c(OC)cc(OC)c1C2=O [GRISEOFULVIN] | 40 | 87 | > 85 | 75.1 | 87.3 | 20.5 | > 85 |  |  | 
NNC(=O)c1ccncc1 [ISONIAZID] | > 656 | > 656 | > 219 |  | > 656 | > 656 | > 219 | > 729 | > 729 | > 36.5 µM and 246 µM
CCC(C)n1ncn(-c2ccc(N3CCN(c4ccc(OCC5COC(Cn6cncn6)(c6ccc(Cl)cc6Cl)O5)cc4)CC3)cc2)c1=O (stereo unspecified) [ITRACONAZOLE] | 8.53 | 2.42 | > 1.42 | 1.37 | 0.004 | 1.11 | 4.25 |  |  | 
Cc1cccc(C)c1OCC(=O)N[C@@H](Cc1ccccc1)[C@@H](O)C[C@H](Cc1ccccc1)NC(=O)[C@H](C(C)C)N1CCCNC1=O [LOPINAVIR] | 10.8 | 11.8 | > 47.7 | 1.92 | 15.4 | 18.9 | > 47.7 |  |  | 
CCN(CCCCOC(=O)c1ccc(OC)c(OC)c1)C(C)Cc1ccc(OC)cc1 (stereo unspecified) [MEBEVERINE] | 54.2 | > 210 | 54.9 | 1.74 | 3.89 | 70.8 | > 69.8 |  |  | 
CN(C)c1ccc(O)c2c1C[C@H]1C[C@H]3[C@H](N(C)C)C(O)=C(C(N)=O)C(=O)[C@@]3(O)C(O)=C1C2=O [MINOCYCLINE] | 36.6 | 45.7 | > 21.9 | 3.58 | 22.3 | 9.42 | > 21.9 |  |  | 
NC(=O)c1cccnc1 [NIACINAMIDE] | > 737 | > 737 | > 246 | > 40.9 | > 737 | > 737 | > 246 |  |  | 
O=C(Nc1ccc([N+](=O)[O-])cc1Cl)c1cc(Cl)ccc1O [NICLOSAMIDE] | 1.67 | 0.15 | > 0.31 | 1.14 | 2.49 | 2.3 | 1.01 |  |  | 
O=C(N/N=C/c1ccc([N+](=O)[O-])o1)c1ccc(O)cc1 [NIFUROXAZIDE] | 0.03 | 2.83 | > 10.9 | 7.82 | 0.23 | 12.3 | 36.2 |  |  | 
CNCCC=C1c2ccccc2CCc2ccccc21 [NORTRIPTYLINE] | 1.17 | > 342 | > 11.4 | 0.58 | 22.9 | 27.9 | 38 |  |  | 
COc1ccc2[nH]c([S+]([O-])Cc3ncc(C)c(OC)c3C)nc2c1 (stereo unspecified) [OMEPRAZOLE] | 51.8 | 90.9 | > 86.9 | 13.2 | 68.3 | 126 | > 86.9 |  |  | 
Fc1ccc([C@@H]2CCNC[C@H]2COc2ccc3c(c2)OCO3)cc1 [PAROXETINE] | 1.13 | > 273 | > 9.11 | 9.23 | 14.4 | 13.8 | 30.4 |  |  | 
CN(C)CCCN1c2ccccc2Sc2ccccc21 [PROMAZINE] | 2.16 | > 316 | > 35.2 | 0.49 | 49.1 | 30.1 | > 35.2 |  |  | 
CO[C@H]1/C=C/O[C@@]2(C)Oc3c(C)c(O)c4c(O)c(cc(O)c4c3C2=O)NC(=O)/C(C)=C\C=C\[C@H](C)[C@H](O)[C@@H](C)[C@@H](O)[C@@H](C)[C@H](OC(C)=O)[C@@H]1C [RIFAMYCIN] | 0.99 | 1.5 | > 13.9 | 0.55 | 50 | 15.7 | 41.6 |  |  | 
CN(C/C=C/C#CC(C)(C)C)Cc1cccc2ccccc12 [TERBINAFINE] | 95.2 | 23 | 69.5 | 7.72 | 40.9 | 47 | > 91.5 |  |  | 
